Values quoted from earlier work as cited in patent US20060280691A1 (University of Alberta, priority 2005, published 2006).
Values after ≈ are worked out from the molar mass of the structure shown.

Structure (SMILES): O=C(O)c1cn(C2CC2)c2cc(N3CCNCC3)c(F)cc2c1=O [Ciprofloxacin, ciprofloxacin]
- MIC90 (Pseudomonas aeruginosa): 4 µg/mL (≈ 12.1 µM)
- MIC90 (Streptococcus pyogenes): 1 µg/mL (≈ 3.02 µM)
- MIC90 (Neisseria gonorrhoeae): 0.004 µg/mL (≈ 0.0121 µM)
- MIC (Bacillus anthracis): 1.6 µg/mL (≈ 4.83 µM)
